Source: the supplement of paper PMC11061612

Tests used:
Experiment in all cases: combination Emax (second highest fraction inhibited in the dose matrix, 72 h); higher = more inhibition; extreme values may be limits of the assay
[1] = system: NCI-H1793 (Lung Adenocarcinoma)
Summary of the method: (§1)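 After 24 hours at 37°C and 5% CO2 in 1536-well plates, cells in DMEM/F12 or RPMI plus 10% FBS received two-drug dose matrices for 72 hours. Viability came from CellTiter-Glo 2.0 luminescence and was scaled as inhibition, anchored at 0 by vehicle wells and at 1 by blank wells. Combination Emax is taken as the second-highest inhibition in the matrix, and Bliss excess as the observed combination effect less EA + EB − EA·EB, with EA and EB the single-agent effects.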

RH-1 (Ewing's Sarcoma) = system: RH-1 (Ewing's Sarcoma)
Summary of the method: as §1

[2] = system: SW1088 (Low Grade Glioma)
Summary of the method: as §1

[3] = system: HCC2157 (Breast Carcinoma)
Summary of the method: as §1

ES7 (Ewing's Sarcoma) = system: ES7 (Ewing's Sarcoma)
Summary of the method: as §1

[4] = system: 697 (B-Lymphoblastic Leukemia)
Summary of the method: as §1

[5] = system: IHH-4 (Thyroid Gland Carcinoma)
Summary of the method: as §1

[6] = system: LS-513 (Colorectal Carcinoma)
Summary of the method: as §1

[7] = system: LU-99A (Non-Small Cell Lung Carcinoma)
Summary of the method: as §1

[8] = system: CFPAC-1 (Pancreatic Carcinoma)
Summary of the method: as §1

[9] = system: G-292-Clone-A141B1 (Osteosarcoma)
Summary of the method: as §1

SN12C (Kidney Carcinoma) = system: SN12C (Kidney Carcinoma)
Summary of the method: as §1

[10] = system: TGBC24TKB (Biliary Tract Carcinoma)
Summary of the method: as §1

NCI-H2369 (Mesothelioma) = system: NCI-H2369 (Mesothelioma)
Summary of the method: as §1

[11] = system: DOV13 (Ovarian Carcinoma)
Summary of the method: as §1

[12] = system: KARPAS-620 (Plasma Cell Myeloma)
Summary of the method: as §1

[13] = system: SUIT-2 (Pancreatic Carcinoma)
Summary of the method: as §1

[14] = system: KARPAS-1106P (B-Cell Non-Hodgkin's Lymphoma)
Summary of the method: as §1

IGR-1 (Melanoma) = system: IGR-1 (Melanoma)
Summary of the method: as §1

[15] = system: SW780 (Bladder Carcinoma)
Summary of the method: as §1

SMILES	combination Emax [1]	combination Emax (RH-1 (Ewing's Sarcoma))	combination Emax [2]	combination Emax [3]	combination Emax (ES7 (Ewing's Sarcoma))	combination Emax [4]	combination Emax [5]	combination Emax [6]	combination Emax [7]	combination Emax [8]	combination Emax [9]	combination Emax (SN12C (Kidney Carcinoma))	combination Emax [10]	combination Emax (NCI-H2369 (Mesothelioma))	combination Emax [11]	combination Emax [12]	combination Emax [13]	combination Emax [14]	combination Emax (IGR-1 (Melanoma))	combination Emax [15]
COc1nnc2ccc(N3CCC(c4ccc(OCCN5CCN(C)C(=O)[C@H]5C)cc4)CC3)nn12 [AZD5153] + CCN(CCO)CCCOc1ccc2c(Nc3cc(CC(=O)Nc4cccc(F)c4)[nH]n3)ncnc2c1 [AZD2811] (first compound max 1 µM, 7x7, partner max 1 µM)	0.278	0.995	0.519	1	0.884	1	0.682	0.602	0.505	0.394	0.366	0.394	0.765	0.344	0.676	0.75	0.436	0.741	0.522	0.339
Cc1c2c(nn1C)CSCc1cc(n(C)n1)CSc1cc(c3ccccc3c1)OCCCc1c(C(=O)O)n(C)c3c-2c(Cl)ccc13 [AZD5991] + C[C@@H](Nc1cc(F)cc(F)c1)c1cc(C(=O)N(C)C)cc2c(=O)cc(N3CCOCC3)oc12 [AZD8186] (first compound max 1 µM, 7x7, partner max 3 µM)	0.263	0.827	0.533	0.987	0.95	0.978	0.234	0.255	0.275	0.294	0.415	0.246	0.249	0.24	0.381	1	0.175	0.997	0.28	0.228
CC1(C)CCC(CN2CCN(c3ccc(C(=O)NS(=O)(=O)c4ccc(NCC5CCOCC5)c([N+](=O)[O-])c4)c(Oc4cnc5[nH]ccc5c4)c3)CC2)=C(c2ccc(Cl)cc2)C1 [Venetoclax] + CCN(CCO)CCCOc1ccc2c(Nc3cc(CC(=O)Nc4cccc(F)c4)[nH]n3)ncnc2c1 [AZD2811] (first compound max 1 µM, 7x7, partner max 1 µM)	0.234	0.951	0.474	0.762	0.911	1	0.389	0.399	0.299	0.259	0.235	0.187	0.525	0.173	0.523	1	0.187	0.46	0.349	0.193
Cc1cc2ncnn2cc1Nc1ncc2c(n1)n(C1CCOCC1)c(=O)n2C [AZD7648] + C=CCn1c(=O)c2cnc(Nc3ccc(N4CCN(C)CC4)cc3)nc2n1-c1cccc(C(C)(C)O)n1 [AZD1775] (first compound max 10 µM, partner max 1 µM)	0.416	1	0.504	0.899	0.541	1	0.802	0.776	0.563	0.444	0.295	0.313	0.786	0.314	0.839	0.597	0.656	0.901	0.25	0.233
NC1(C(=O)N[C@@H](CCO)c2ccc(Cl)cc2)CCN(c2ncnc3[nH]ccc23)CC1 [Capivasertib] + CC(C)n1c(=O)n(C)c2cnc3cc(F)c(-c4ccc(OCCCN5CCCCC5)nc4)cc3c21 [AZD1390] (first compound max 10 µM, 7x7, partner max 0.3 µM)	0.265	0.333	0.624	0.999	0.446	0.59	0.203	0.471	0.407	0.235	0.219	0.205	0.25	0.222	0.462	0.775	0.139	0.392	0.334	0.176
CN(CCO)CC[C@H](CSc1ccccc1)Nc1ccc(S(=O)(=O)NC(=O)c2ccc(N3CCC([C@@H](O)c4ccccc4-c4ccc(Cl)cc4)CC3)cc2)cc1S(=O)(=O)C(F)(F)F [AZD4320] + Cn1cnc2c(F)c(Nc3ccc(Br)cc3Cl)c(C(=O)NOCCO)cc21 [Selumetinib] (first compound max 1 µM, 7x7, partner max 3 µM)	0.248	0.854	0.289	0.923	0.984	1	0.58	0.941	0.87	0.472	0.564	0.337	0.791	0.435	0.747	1	0.406	0.769	0.986	0.78
Cc1c2c(nn1C)CSCc1cc(n(C)n1)CSc1cc(c3ccccc3c1)OCCCc1c(C(=O)O)n(C)c3c-2c(Cl)ccc13 [AZD5991] + Cn1cnc2c(F)c(Nc3ccc(Br)cc3Cl)c(C(=O)NOCCO)cc21 [Selumetinib] (first compound max 1 µM, 7x7, partner max 3 µM)	0.244	0.52	0.229	0.982	0.759	1	0.385	0.796	0.379	0.322	0.221	0.246	0.418	0.151	0.252	1	0.285	0.979	0.622	0.333
COc1nnc2ccc(N3CCC(c4ccc(OCCN5CCN(C)C(=O)[C@H]5C)cc4)CC3)nn12 [AZD5153] + C[C@@H]1COCCN1C2=NC(=NC(=C2)C3(CC3)[S@](=N)(=O)C)C4=C5C=CNC5=NC=C4 [AZD6738] (first compound max 1 µM, 7x7, partner max 10 µM)	0.629	0.957	0.645	1	0.952	1	0.772	0.755	0.755	0.574	0.458	0.204	0.855	0.363	0.923	0.835	0.671	0.944	0.728	0.465
Cc1c2c(nn1C)CSCc1cc(n(C)n1)CSc1cc(c3ccccc3c1)OCCCc1c(C(=O)O)n(C)c3c-2c(Cl)ccc13 [AZD5991] + CC1(C)CCC(CN2CCN(c3ccc(C(=O)NS(=O)(=O)c4ccc(NCC5CCOCC5)c([N+](=O)[O-])c4)c(Oc4cnc5[nH]ccc5c4)c3)CC2)=C(c2ccc(Cl)cc2)C1 [Venetoclax] (first compound max 1 µM, 7x7, partner max 1 µM)	0.174	0.766	0.248	0.985	0.893	1	0.253	0.18	0.111	0.143	0.184	0.21	0.304	0.147	0.221	1	0.209	0.935	0.969	0.386
Cc1c2c(nn1C)CSCc1cc(n(C)n1)CSc1cc(c3ccccc3c1)OCCCc1c(C(=O)O)n(C)c3c-2c(Cl)ccc13 [AZD5991] + C=CCn1c(=O)c2cnc(Nc3ccc(N4CCN(C)CC4)cc3)nc2n1-c1cccc(C(C)(C)O)n1 [AZD1775] (first compound max 1 µM, partner max 1 µM)	0.488	0.994	0.352	0.979	0.732	1	0.684	0.871	0.428	0.555	0.262	0.358	0.672	0.327	0.829	1	0.555	0.997	0.63	0.172
CCc1c2c(nc3ccc(O)cc13)-c1cc3c(c(=O)n1C2)COC(=O)[C@]3(O)CC [SN-38] + CN(C)CCCOc1ccc(-c2ccc3ncc4c(c3c2)n(C2CCOCC2)c(=O)n4C)cn1 [AZD0156] (first compound max 0.3 µM, 7x7, partner max 1 µM)	0.505	1	0.54	0.969	1	1	1	0.526	0.769	0.789	0.213	0.738	0.533	0.32	0.936	0.437	0.744	0.901	0.497	0.33
COc1cccc(OCCCN)c1-c1cc(Nc2cnc(C#N)cn2)n[nH]1 [Prexasertib] + O=C(c1cc(Cc2n[nH]c(=O)c3ccccc23)ccc1F)N1CCN(C(=O)C2CC2)CC1 [Olaparib] (first compound max 1 µM, 7x7, partner max 10 µM)	0.532	1	0.792	0.967	0.976	1	0.789	0.781	0.765	0.671	0.3	0.387	0.835	0.283	0.962	0.802	0.682	0.897	0.566	0.23
COc1cccc(OCCCN)c1-c1cc(Nc2cnc(C#N)cn2)n[nH]1 [Prexasertib] + CN(C)CCCOc1ccc(-c2ccc3ncc4c(c3c2)n(C2CCOCC2)c(=O)n4C)cn1 [AZD0156] (first compound max 1 µM, 7x7, partner max 1 µM)	0.468	1	0.797	0.976	0.838	1	0.901	0.824	0.823	0.618	0.33	0.342	0.863	0.29	0.927	0.896	0.682	0.919	0.466	0.136
